According to patent US20190275027A1 (priority 2018, published 2019):

Target: L-type channel CaV1.2 (UniProt P15381)
Sequence (P15381 whole entry, looked up): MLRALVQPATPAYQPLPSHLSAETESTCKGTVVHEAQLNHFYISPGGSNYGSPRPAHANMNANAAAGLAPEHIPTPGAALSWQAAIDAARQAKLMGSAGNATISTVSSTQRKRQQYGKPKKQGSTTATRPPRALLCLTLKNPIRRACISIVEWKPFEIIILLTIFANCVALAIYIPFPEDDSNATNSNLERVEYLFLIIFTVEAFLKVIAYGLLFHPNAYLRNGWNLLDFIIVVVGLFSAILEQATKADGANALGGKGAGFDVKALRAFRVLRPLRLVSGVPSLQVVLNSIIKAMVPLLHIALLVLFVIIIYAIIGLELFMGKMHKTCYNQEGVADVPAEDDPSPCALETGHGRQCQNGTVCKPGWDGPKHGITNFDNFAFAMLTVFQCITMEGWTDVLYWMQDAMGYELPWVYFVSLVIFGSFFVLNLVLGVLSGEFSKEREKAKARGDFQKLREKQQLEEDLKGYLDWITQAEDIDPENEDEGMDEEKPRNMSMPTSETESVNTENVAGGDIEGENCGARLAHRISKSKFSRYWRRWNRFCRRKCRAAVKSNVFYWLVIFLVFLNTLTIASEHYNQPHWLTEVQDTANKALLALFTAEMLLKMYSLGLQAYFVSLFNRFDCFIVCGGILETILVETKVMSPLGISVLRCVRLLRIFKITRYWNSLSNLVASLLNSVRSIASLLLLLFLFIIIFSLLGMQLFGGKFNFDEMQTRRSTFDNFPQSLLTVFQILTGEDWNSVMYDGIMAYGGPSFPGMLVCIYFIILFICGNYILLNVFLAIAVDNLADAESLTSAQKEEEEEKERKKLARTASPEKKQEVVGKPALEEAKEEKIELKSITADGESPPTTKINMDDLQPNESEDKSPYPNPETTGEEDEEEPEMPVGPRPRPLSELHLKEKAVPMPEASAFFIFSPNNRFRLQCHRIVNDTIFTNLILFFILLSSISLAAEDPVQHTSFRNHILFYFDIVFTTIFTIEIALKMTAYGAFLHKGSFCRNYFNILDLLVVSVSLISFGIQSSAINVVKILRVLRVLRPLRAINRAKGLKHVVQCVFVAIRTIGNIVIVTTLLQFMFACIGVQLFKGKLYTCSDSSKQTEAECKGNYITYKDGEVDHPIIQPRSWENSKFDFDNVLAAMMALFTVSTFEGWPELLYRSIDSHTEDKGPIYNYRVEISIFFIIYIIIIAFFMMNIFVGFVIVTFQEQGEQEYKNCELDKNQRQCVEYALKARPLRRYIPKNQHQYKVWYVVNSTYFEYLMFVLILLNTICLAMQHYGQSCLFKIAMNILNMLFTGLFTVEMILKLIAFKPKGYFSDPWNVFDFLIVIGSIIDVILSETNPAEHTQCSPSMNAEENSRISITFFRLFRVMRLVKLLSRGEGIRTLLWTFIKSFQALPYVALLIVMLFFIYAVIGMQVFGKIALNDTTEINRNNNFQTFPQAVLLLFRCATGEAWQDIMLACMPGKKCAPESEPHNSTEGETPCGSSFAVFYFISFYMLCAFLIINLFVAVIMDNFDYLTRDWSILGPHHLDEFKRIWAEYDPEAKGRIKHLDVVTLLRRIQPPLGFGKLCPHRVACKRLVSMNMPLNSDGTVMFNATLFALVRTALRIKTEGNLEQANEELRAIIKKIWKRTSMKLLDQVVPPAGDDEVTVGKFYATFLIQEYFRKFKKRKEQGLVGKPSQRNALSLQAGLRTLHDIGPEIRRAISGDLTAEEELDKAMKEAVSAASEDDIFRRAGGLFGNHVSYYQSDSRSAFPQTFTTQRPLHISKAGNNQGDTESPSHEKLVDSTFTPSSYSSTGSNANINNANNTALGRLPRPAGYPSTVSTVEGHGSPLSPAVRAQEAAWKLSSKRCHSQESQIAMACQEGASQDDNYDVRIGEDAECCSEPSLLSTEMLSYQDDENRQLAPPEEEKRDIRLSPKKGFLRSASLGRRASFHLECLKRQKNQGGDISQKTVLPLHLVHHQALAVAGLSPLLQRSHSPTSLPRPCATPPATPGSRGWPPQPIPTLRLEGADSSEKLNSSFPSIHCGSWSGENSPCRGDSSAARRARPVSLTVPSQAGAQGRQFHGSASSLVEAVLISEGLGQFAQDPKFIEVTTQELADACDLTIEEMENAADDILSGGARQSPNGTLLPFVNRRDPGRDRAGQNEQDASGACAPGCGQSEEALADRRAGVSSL

COc1ccc2cc1Oc1ccc(cc1)C[C@H]1c3cc(c(OC)cc3CCN1C)Oc1c(OC)c(OC)cc3c1[C@H](C2)N(C)CC3 [TETN, tetrandrine, reference compound]
L-Activity IC50: 46.80 ± 10.84 µM
